From patent US8916567B2, “Certain crystalline hydrates, pharmaceutical compositions thereof and methods for preparation and use thereof” (Universal Technology Alliance, Inc., priority 2009, dated 2014)
In brackets after ≈: the same amount, converted by molar mass.

Columns and labels:
E. feacalis = test: Minimum inhibitory concentration (MIC) in vitro, agar dilution method; format: cell-based
From the text: (§1) Hydrates Samples: • The 1/2 hydrates prepared according to Example 2; • Content (purity % wt): 99.0%; • The 1/12 hydrates prepared according to Example 253; • Content (purity % wt): 98.9%; • The 2/7 hydrates prepared according to Example 106; • Content (purity % wt): 98.8%; • The 2/5 hydrates prepared according to Example 162; • Content (purity % wt): 99.0%; • The 3/4 hydrates prepared according to Example 337; • Content (purity % wt): 98.8%; • Preparation: dissolved in DMSO, and further diluted with sterile distilled water to desired concentration. • The hydrates samples were supplied by Sichuan Beilike Biotechnology LTD.
(§2) Anhydrous Sample: • The anhydrous compounds prepared according to Example 1. • Content (purity % wt): 98.6%; • Preparation: dissolved in DMSO, and further diluted with sterile distilled water to desired concentration; • The anhydrous sample was supplied by Sichuan Beilike Biotechnology LTD.
(§3) Control Samples • Vancomycin: provided by Sichuan Beilike Biotechnology LTD, purchased from Eli Lilly Japan K.K. • Lot No.: WM16151 (production date: Apr. 10, 2007, expiration date: Apr. 9, 2009). • Specification: 500 mg/bottle; solubility (physicochemical properties): soluble in water. • Linezolid (LZ): provided by Sichuan Beilike Biotechnology LTD.
(§4) Bacteria Strains • Clinically isolated strains: clinically isolated bacterial pathogens collected in Sichuan and Beijing areas from March 2007 to May 2008. • Species include: Staphylococcus aureus MRSA, Staphylococcus aureus MSSA, S. epidermidis MRSE, S. epidermidis MSSE, E. feacalis, and E. feacium, a total of 51 strains. • Quality control strains: Staphylococcus aureus […] strain kept in Sichuan Industrial Institute of Antibiotics, purchased from the medical testing center of the Ministry of Health, China.
(§5) Experimental Method: • Measurement of the minimum inhibitory concentration (MIC) in vitro: • The minimum inhibitory concentration (MIC) of each test sample against test strains was measured by using the agar dilution method recommended by the U.S. National Committee for Clinical Laboratory Standards (CLSI/NCCIs).
(§6) Based on the CLSI/NCCL's testing standard with respect to vancomycin and linezolid (see Table 6), the minimum inhibitory concentration (MIC) values of every strain were reported, and the MIC50 (the concentration that inhibits 50% of the different strains of bacteria), MIC90 (the concentration that inhibits 90% of the different strains of bacteria), and MICrange (the range of the MIC value of the tested strains) were observed.

E. feacium = test: as above; format: cell-based
From the text: as §1, §2, §3, §4, §5, §6

S. epidermidis MRSE = test: as above; format: cell-based
From the text: as §1, §2, §3, §4, §5, §6

S. epidermidis MSSE = test: as above; format: cell-based
From the text: as §1, §2, §3, §4, §5, §6

[1] = tested on: Staphylococcus aureus MRSA; test: as above; format: cell-based; settings: S. MRSA (10 strains), clinically isolated
From the text: as §1, §2, §3, §4, §5, §6

[2] = tested on: Staphylococcus aureus MSSA; test: as above; format: cell-based; settings: S. MSSA (11 strains), clinically isolated
From the text: as §1, §2, §3, §4, §5, §6

[3] = Solubility in different solvents according to Chinese Pharmacopeia (2005 edition); format: physicochemical; settings: at the given solute:solvent ratio
Method: The solubility of the (S)—[N-3-(3′-fluoro-4′-(4″-phenylpiperazinyl))phenyl-2-oxo-5-oxazolelidinyl]methylacetamide hydrates was tested with different solvents, and the test results are shown in Tables 15-19. The solubility was measured according to Chinese Pharmacopeia (2005 edition).

[4] = E. feacalis (5 strains), clinically isolated
[5] = E. feacium (5 strains), clinically isolated
[6] = S. ep MRSE (10 strains), clinically isolated
[7] = S. ep MSSE (10 strains), clinically isolated

Compound: CC(=O)NC[C@H]1CN(c2ccc(N3CCN(c4ccccc4)CC3)c(F)c2)C(=O)O1 [Anhydrous compound]
- MIC50 (E. feacalis; [4]): 4 µg/mL (≈ 9.7 µM)
- MIC90 (E. feacalis; [4]): 8 µg/mL (≈ 19.4 µM)
- MICrange (E. feacalis; [4]): 2 to 8 µg/mL
- MIC (E. feacalis; strain Efa 54 (Table 8 No. 20)): 4 µg/mL (≈ 9.7 µM)
- MIC (E. feacalis; strain Efa 116 (Table 8 No. 16)): 4 µg/mL (≈ 9.7 µM)
- MIC (E. feacalis; strain Efa 907 (Table 8 No. 19)): 2 µg/mL (≈ 4.85 µM)
- MIC (E. feacalis; strain Efa 3006 (Table 8 No. 18)): 4 µg/mL (≈ 9.7 µM)
- MIC (E. feacalis; strain Efa 33748 (Table 8 No. 17)): 8 µg/mL (≈ 19.4 µM)
- MIC50 (E. feacium; [5]): 4 µg/mL (≈ 9.7 µM)
- MIC90 (E. feacium; [5]): 8 µg/mL (≈ 19.4 µM)
- MICrange (E. feacium; [5]): 2 to 8 µg/mL
- MIC (E. feacium; strain Efm 98 (Table 8 No. 21)): 4 µg/mL (≈ 9.7 µM)
- MIC (E. feacium; strain Efm 171 (Table 8 No. 25)): 4 µg/mL (≈ 9.7 µM)
- MIC (E. feacium; strain Efm 197 (Table 8 No. 22)): 2 µg/mL (≈ 4.85 µM)
- MIC (E. feacium; strain Efm N3 (Table 8 No. 23)): 8 µg/mL (≈ 19.4 µM)
- MIC (E. feacium; strain Efm N4 (Table 8 No. 24)): 8 µg/mL (≈ 19.4 µM)
- MIC50 (S. epidermidis MRSE; [6]): 2 µg/mL (≈ 4.85 µM)
- MIC90 (S. epidermidis MRSE; [6]): 2 µg/mL (≈ 4.85 µM)
- MICrange (S. epidermidis MRSE; [6]): 2 µg/mL
- MIC (S. epidermidis MRSE; strain S. ep MRSE4 (Table 8 No. 9)): 2 µg/mL (≈ 4.85 µM)
- MIC (S. epidermidis MRSE; strain S. ep MRSE20 (Table 8 No. 6)): 2 µg/mL (≈ 4.85 µM)
- MIC (S. epidermidis MRSE; strain S. ep MRSE87 (Table 8 No. 13)): 2 µg/mL (≈ 4.85 µM)
- MIC (S. epidermidis MRSE; strain S. ep MRSE90 (Table 8 No. 10)): 2 µg/mL (≈ 4.85 µM)
- MIC (S. epidermidis MRSE; strain S. ep MRSE101 (Table 8 No. 7)): 2 µg/mL (≈ 4.85 µM)
- MIC (S. epidermidis MRSE; strain S. ep MRSE105 (Table 8 No. 11)): 2 µg/mL (≈ 4.85 µM)
- MIC (S. epidermidis MRSE; strain S. ep MRSE140 (Table 8 No. 14)): 2 µg/mL (≈ 4.85 µM)
- MIC (S. epidermidis MRSE; strain S. ep MRSE142 (Table 8 No. 12)): 2 µg/mL (≈ 4.85 µM)
- MIC (S. epidermidis MRSE; strain S. ep MRSE210 (Table 8 No. 15)): 2 µg/mL (≈ 4.85 µM)
- MIC (S. epidermidis MRSE; strain S. ep MRSE211 (Table 8 No. 8)): 2 µg/mL (≈ 4.85 µM)
- MIC50 (S. epidermidis MSSE; [7]): 1 µg/mL (≈ 2.42 µM)
- MIC90 (S. epidermidis MSSE; [7]): 2 µg/mL (≈ 4.85 µM)
- MICrange (S. epidermidis MSSE; [7]): 1 to 2 µg/mL
- MIC (S. epidermidis MSSE; strain S. ep MSSE88 (Table 8 No. 5)): 2 µg/mL (≈ 4.85 µM)
- MIC (S. epidermidis MSSE; strain S. ep MSSE118 (Table 8 No. 2)): 1 µg/mL (≈ 2.42 µM)
- MIC (S. epidermidis MSSE; strain S. ep MSSE137 (Table 8 No. 4)): 2 µg/mL (≈ 4.85 µM)
- MIC (S. epidermidis MSSE; strain S. ep MSSE140 (Table 8 No. 3)): 1 µg/mL (≈ 2.42 µM)
- MIC (S. epidermidis MSSE; strain S. ep MSSE153 (Table 8 No. 1)): 2 µg/mL (≈ 4.85 µM)
- MIC50 [1]: 2 µg/mL (≈ 4.85 µM)
- MIC90 [1]: 2 µg/mL (≈ 4.85 µM)
- MICrange [1]: 1 to 2 µg/mL
- MIC50 [2]: 2 µg/mL (≈ 4.85 µM)
- MIC90 [2]: 2 µg/mL (≈ 4.85 µM)
- MICrange [2]: 1 to 2 µg/mL

Compound: CC(=O)NC[C@H]1CN(c2ccc(N3CCN(c4ccccc4)CC3)c(F)c2)C(=O)O1 [Example 1, (S)—[N-3-(3′-fluoro-4′-(4″-phenylpiperazinyl))phenyl-2-oxo-5-oxazolidinyl]methyl acetamide]
- Result ([3]; solvent 0.1N Hydrochloric acid): Dissolved
- Result ([3]; solvent 0.1N Sodium hydroxide): Insoluble
- Result ([3]; solvent Acetonitrile): Dissolved
- Result ([3]; solvent Ethanol): Dissolved
- Result ([3]; solvent Methanol): Dissolved
- Result ([3]; solvent Water, listed as Anhydride): Insoluble
